Key:
[1] = cited from earlier work
[2] = system: cholesterol and triglyceride levels; details: cited from earlier work
[3] = system: major drug metabolizing enzymes (CYP450); set-up: method as in van Heek and Davis, 2002; details: ref van Heek and Davis, 2002; cited from earlier work
[4] = cited from earlier work; for terminal elimination half-life: the drug and its metabolite, ref Ezzet et al., 2001
[5] = Pharmacokinetics of total EZE in plasma, single-dose three-period crossover study, EZE alone vs ATO–EZE combination; assay type: in vivo, human; details: EZE 10 mg coadministered with ATO 80 mg; bioequivalence-based hypothesis
Experimental: Thirty six healthy Mexicans volunteers of both gender who were between the ages of 18 and 45 (mean ± SEM: 24.71 ± 0.03 years), had heights between 140.0 and 190.0 cm (163.0 ± 0.005 cm), and weighed between 43.50 and 79.50 kg (62.15 ± 1.9 kg) were enrolled in the study. The study protocol was approved by an independent ethics committee as well as by the regulatory authority in Mexico (COFEPRIS), and it was conducted following the ethical principles described in the Declaration of Helsinki. […]
For the determination of both molecules were developed an analytical method, where only once plasma processing is used to obtain both molecules, but the quantification of the analytes was performed on two separate injections ATO in positive electrospray ionization ESI (+) mode and EZE in negative electrospray ionization ESI (-) mode. […]
Chromatographic analysis was performed on UPLC-MS/MS system consisting of Acquity UPLC coupled to a tandem mass spectrometry detector XEVO-TQS (Waters, USA) and Acquity UPLC BEH C18 (1.7 μm, 2.1 × 100 mm) column (Waters, USA). […] MRM data were acquired and analyzed through MassLynx software (Waters, USA). […]

[6] = hyperlipidemic patients, dose dependent, ref Nawrocki et al., 1995, Heinonen et al., 1996
[7] = dose of 10 mg, ref Kosoglou et al. (2002)
[8] = oral administration, ref van Heek et al., 2000, Patrick et al., 2002, Malloy and Kane, 2007, Mahley and Bersot, 2008

| SMILES | intra-subject variability ([1]; ref European Medicines Agency [EMEA] (2010)) [%] | share of circulating inhibitory activity for HMG-CoA reductase attributed to active metabolites (ortho- and parahydroxy ATO) ([1]; ref Pfizer Inc. Lipitor®, 2009) | reduction of colesterol and triglycerides, significantly larger than equivalent doses of other statin drugs ([2]; P ≤ 0.01, ref Jones et al., 1998) | lowering of cholesterol levels [2, 6] | lowering of triglyceride levels [2, 6] | effect on the activity of major drug metabolizing enzymes (CYP450) [3] | Cmax of EZE [4, 7] [ng/mL] | area under the curve to the end point of EZE [4, 7] [ng·h/mL] | fraction biotransformed into glucuronide active metabolite ([4]; ref Kosoglou et al. (2002)) [%] | terminal elimination half-life [4] [h] | pharmacokinetic drug–drug interaction (on EZE) [5] | time of first peak blood level (dual peak, enterohepatic recirculation) [4, 8] [h] | time of second peak blood level (dual peak, enterohepatic recirculation) [4, 8] [h] |
| --- | --- | --- | --- | --- | --- | --- | --- | --- | --- | --- | --- | --- | --- |
| CC(C)c1c(C(=O)Nc2ccccc2)c(-c2ccccc2)c(-c2ccc(F)cc2)n1CC[C@@H](O)C[C@@H](O)CC(=O)O [ATO, Atorvastatin] | > 30 | Approximately 70% | 38–51% | 25–61% | 9–61% |  |  |  |  |  |  |  |  |
| O=C1[C@H](CC[C@H](O)c2ccc(F)cc2)[C@@H](c2ccc(O)cc2)N1c1ccc(F)cc1 [EZE, Ezetimibe] |  |  |  |  |  | no effect | 64.2 to 73.6 | 440 to 722 | > 80 | 20 to 30 | no relevant pharmacokinetic drug–drug interaction |  |  |
| O=C(O)[C@H]1O[C@@H](Oc2ccc([C@@H]3[C@@H](CC[C@H](O)c4ccc(F)cc4)C(=O)N3c3ccc(F)cc3)cc2)[C@H](O)[C@@H](O)[C@@H]1O [EZE-G] |  |  |  |  |  |  |  |  |  | 20 to 30 |  | 4 to 6 | 10 to 12 |

From publication PMC4245888 (Frontiers in Pharmacology, 2014)
